In ChEMBL document CHEMBL3507680, “University of Dundee, Gates Library screen for HepG2 cell viability”:

Experiment: Human HepG2 cell viability assay in 384 well format
Format: toxicity, cell-based
Parameters: dose 125 nL, time 70.5 hour; concentration not given beside the values
Conditions: HepG2 cells, read-out: Inhibition

SMILES | cytotoxicity at 70.5 h [%]
CC(C)n1cnc(-c2nc(C(=O)NC3CC3)c3ccccn23)c1 | -15.8
COCc1cnc2n1CCN(C(=O)c1cc3ccccc3o1)C2C (stereo not drawn) | 18.8
COCc1cnc2n1CCN(C(=O)c1oc3ccccc3c1C)C2C (stereo not drawn) | 18.3
COCc1cnc2n1CCN(C(=O)c1cnc3ccccc3c1)C2C (stereo not drawn) | -9.53
Cn1cccc1C(=O)N1C[C@H](OCC2CCOCC2)[C@H]2COC[C@H]21 | -10.8
Cc1cccc(S(=O)(=O)N2CCC3(CC2)CC(N(C)C)CO3)c1 (stereo not drawn) | -10.7
CCc1cnc(N2CC3(CCN(S(=O)(=O)C4CC4)C3)C2)nc1 | -8.49
O=C(NCC1CC1)[C@@H]1CC[C@@H]2[C@@H](CCN2CCOCc2ccccc2)O1 | -9.94
c1csc(CNCC2COCc3c(-c4ccsc4)nnn3C2)n1 (stereo not drawn) | -7.15
CC(=O)N1CCC(c2nnc3ccc(C(=O)NCCN(C)C)cn23)C1 (stereo not drawn) | -10.5
CNC(=O)CN1CCOCC2(C1)CN(Cc1csnn1)CCO2 (stereo not drawn) | 12.8
Cc1cc(C(=O)N2CCc3ncc(CN4CCCCC4)n3CC2)no1 | 21.9
CNC(=O)[C@H]1C[C@@H]2CN(C(=O)NC(C)C)C[C@H]1O2 | 23
CC(C)CN1C[C@@H]2CN(c3cnccn3)C[C@@H]2C1=O | 29.2
Cc1cnc(N2CCOC3(COCCN(c4nccs4)C3)C2)nc1 (stereo not drawn) | -4.6
O=C1[C@H]2CN(c3cnccn3)C[C@H]2CN1CC1CC1 | -12.5
Cn1cnc(-c2nc(C(=O)NC3CC3)c3ccccn23)c1 | -1.89
Cc1cnc(N2CCCC3(COCCN(c4nccs4)C3)C2)nc1 (stereo not drawn) | -8.41
CN(C)C(=O)CO[C@H]1CO[C@@]2(CCN(S(C)(=O)=O)C2)C1 | -6.98
CN(C)C(=O)CO[C@H]1CO[C@@]2(CCN(Cc3ccoc3)C2)C1 | -5.9
Cn1cnc(-c2nc(C(=O)NCC3CCCO3)c3ccccn23)c1 (stereo not drawn) | -0.333
CNC(=O)[C@@H]1C[C@H]2CN(Cc3ccc(C)o3)C[C@H]2N1C(C)=O | -0.0424

SMILES | cytotoxicity at 70.5 h [%]
COc1cc(N2CCC3(CC2)C(c2ccncc2)CC(=O)N3C)ncn1 (stereo not drawn) | -9.06
Cn1cc(N2C(=O)C[C@@H]3[C@@H]2CCN3C(=O)c2ccco2)cn1 | -6.04
CCC(O)CNc1ccc(-c2nc(CC(C)C)no2)cn1 (stereo not drawn) | -14.3
CCC(CO)N(Cc1ccc(C(=O)O)cc1)Cc1ccsc1 (stereo not drawn) | -5.5
CC(=O)N1CC[C@]2(O)CCN(Cc3nc(C)c[nH]3)C[C@@H]2C1 | 9.69
COc1ccc(Cn2c(CCc3c(C)n[nH]c3C)n[nH]c2=O)cc1 | -3.26
Cc1nc(-c2ccncc2)ncc1C(C)NC(=O)CN1CCOC1=O (stereo not drawn) | -5.31
Cc1nn(C)c2nc(N3CCNC(=O)C3Cc3ccccc3)sc12 (stereo not drawn) | -2.78
Cn1cccc1-c1cc(C(=O)N2CCCC2c2nccs2)[nH]n1 (stereo not drawn) | -0.138
CC(C)N1CCCC2(CCN(C(=O)COCC(F)(F)C(F)F)C2)C1=O (stereo not drawn) | -3.34
c1cc(CN(CCCn2ccnc2)Cc2ccoc2)ccn1 | -4.93
Cc1cc(CN2CCC(C3CCN(Cc4cccnc4)CC3)C2)[nH]n1 (stereo not drawn) | -6.23
CSCC[C@@H](CO)Nc1ccc(-c2nc(-c3ccccc3F)no2)cn1 | -6.28
Cc1cccnc1CCNC(=O)CC1C(=O)NCCN1CCC(C)C (stereo not drawn) | 19.9
O=C1C[C@H]2CC[C@@H](CN1)N2C1CSCCSC1 | 17.4
COc1ccccc1OC1CN(Cc2ccc(C(=O)O)cc2)C1 | -8.2
Cc1ncc(CC(=O)N2CCC3(CCC(=O)N(CCO)C3)CC2)c(=O)[nH]1 | -13.5
CCCn1ncc(-c2ccnc(NC3CCSC3)n2)c1C (stereo not drawn) | -12.7
COCCN(CCOC)C(=O)c1c[nH]nc1-c1cccc(F)c1 | 0.751
Cc1nccc(NCc2cc3n(n2)CCCN(C(=O)C2CCC2)C3)n1 | 13.7
CCCOc1cccc(-c2nc3c([nH]2)CCNC3)c1 | 5.31
CSc1nnc(CC2CCN(C(=O)CCc3cccnc3)CC2)n1C | -8.7

SMILES | cytotoxicity at 70.5 h [%]
CNC(=O)c1cc2c(s1)CCN(C(=O)CCC1CCCN(C)C1)C2 (stereo not drawn) | -7.22
O=C(CN1CCOCC1)N1CCC(c2cc(N3CCCC3)ncn2)CC1 | -3.77
COc1ccc(-n2cc(CCO)cn2)cc1C | -9.33
Cc1nc(C(C)C)sc1C(=O)N(C)Cc1nc(-c2ccccn2)no1 | -9.57
CCc1nc(N2CCC3(CC2)OCCCC3O)ncc1C (stereo not drawn) | -2.39
COc1cc2c(cc1-c1nc3c(cnn3C(C)C3CC3)[nH]1)OCO2 (stereo not drawn) | -2.31
O=S(=O)(NCc1cc2n(n1)CCNC2)c1ccc(OC(F)(F)F)cc1 | -16.5
CCn1nc(CC(C)C)cc1C(=O)N1CC(c2ccncc2)C1 | -4.86
Cc1ccccc1OCC1CCCN(C(=O)Cc2c[nH]c(=O)[nH]c2=O)C1 (stereo not drawn) | -0.878
O=C(NCCOCCO)c1cnc(-c2ccccc2)nc1O | -7.84
Cc1c(CN2CCCC(C(=O)CCc3ccccc3)C2)cc(C#N)n1C (stereo not drawn) | 12
CCCc1nccn1-c1cccc(CN2CCCC2)c1 | -2.36
COCc1nnc(C(=O)N(C)Cc2cnc3ccccn23)o1 | -3.55
Cc1cc(NC(C)c2nnn[nH]2)n2nc(C)c(C)c2n1 (stereo not drawn) | 5.16
C=Cc1ccc(C(=O)N2CCCC(Nc3ccccc3)C2)cc1 (stereo not drawn) | 26.6
Cc1[nH]c(-c2ccccc2)nc1C(=O)N1CC[C@H](CO)[C@@H](O)C1 | 23.4
Cc1ccccc1CC1(CO)CCCN(c2ncncc2C(C)C)C1 (stereo not drawn) | 5.34
Cc1cc(C2CCCCN2C(=O)CN2C(=O)OC(C)(C)C2=O)no1 (stereo not drawn) | -7.73
FC(F)(F)c1ccc(-c2cc(NC3CCNCC3)nc3[nH]ccc23)nc1 | -7.67
CCn1ccnc1C1CCN(C(=O)C(O)c2ccc(Cl)cc2)CC1 (stereo not drawn) | -2.92
CCCC(=O)Nc1ccc(CC(=O)N(C)CCc2cn[nH]c2)cc1 | -7.4
CN1CCN(CCn2cnc3c(F)cccc3c2=O)CC1 | -1.43

SMILES | cytotoxicity at 70.5 h [%]
FC(F)(F)c1cccc(OC2CCN(Cc3c[nH]cn3)CC2)c1 | 45.6
CCCC1C=CCN1C(=O)c1cc(COc2ccccc2)[nH]n1 (stereo not drawn) | -6.23
O=C(Cc1ccccn1)N1CCCC(c2nccn2CC2CCC2)C1 (stereo not drawn) | -24.3
Cc1nc2c(c(=O)[nH]1)CCN(C(=O)c1[nH]nc3c1CC(C)CC3)C2 (stereo not drawn) | 2.4
CCN(Cc1nccn1C)C(=O)c1ccc(NCc2ccc(C)o2)nc1 | 27.2
CCN(Cc1cn(CC2CCNCC2)nn1)CC1CCCO1 (stereo not drawn) | -6.79
CCc1cc(N(C)Cc2ccncn2)n2nccc2n1 | 13.1
CC(NC(=O)c1cc2n(n1)CCCN(C)C2)c1cn2ccsc2n1 (stereo not drawn) | 24.9
COC[C@@]12CC[C@@H](N3CCOCC3)C[C@H]1CCN(c1ccc(Cl)cn1)C2 | -6.42
O=C(c1cnccn1)N1CCCC(Cn2cc(C3CC3)nn2)C1 (stereo not drawn) | 15.7
O=C(Cc1cn2ccsc2n1)N1CCOCC(O)(CN2CCCC2)C1 (stereo not drawn) | -4.72
CC(C)c1nccn1CC(=O)Nc1ccnn1C(C)C(C)C (stereo not drawn) | -16
Cc1nc(C)c(CCN2CCC(Oc3ccccc3F)CC2)s1 | 8.23
CCNc1ccnc(N2Cc3cnc(CC(C)C)nc3C2)n1 | 18.4
COCCc1noc(-c2ccc(-c3cc[nH]n3)nc2)n1 | -1.45
Cc1csc2c(=O)n(CCN3CCNCC3)cnc12 | 11.9
CCc1cnc(C)nc1NC1CC(=O)N(CC)C1 (stereo not drawn) | -7.16
O=C(NCC1CCCN(Cc2cccc3nonc23)C1)c1ccc[nH]1 (stereo not drawn) | 3.08
CCC1CN(C(=O)c2ccc(O)cn2)CCC(=O)N1Cc1ccccc1 (stereo not drawn) | -3.56
CN(Cc1ccc(CCC(C)(C)O)cc1)CC1(CO)CC1 | -10.9
Cc1cccc(CNC2CC(=O)N(Cc3cccc(F)c3)C2)c1 (stereo not drawn) | -4.77
c1ccc(-c2cc(NCCCC3CCOC3)n3nccc3n2)cc1 (stereo not drawn) | -0.688

SMILES | cytotoxicity at 70.5 h [%]
Cn1c(C(N)=O)cc2c1CN(C(=O)C1CC(=O)N(C(C)(C)C)C1)CC2 (stereo not drawn) | -2.03
CNc1nc(C)c(-c2nc(-c3c(C)ncc4c3CCNC4)no2)s1 | -16.8
CCOc1cccc(C2CC(=O)NCc3nc(N)sc32)c1 (stereo not drawn) | -11.2
Cn1ccnc1CN1CCc2ncnc(N3CCCC(C#N)C3)c2CC1 (stereo not drawn) | 26.4
Cn1nccc1NC(=O)c1cccc(CN2C[C@H]3CC[C@@H](C2)N3)c1 | -1.03
Cc1oc(C(C)C)cc1C(=O)N1C[C@H]2CC[C@@H]1CN(C(=O)N(C)C)C2 | 3.52
CN1C(=O)C2(CCNCC2)c2cc(F)ccc21 | -4.69
CN1C(=O)C2(CCN(S(C)(=O)=O)CC2)c2cc(F)ccc21 | -3.04
COCc1cnc2n1CCN(C(=O)c1ccc3ccccc3n1)C2C (stereo not drawn) | -8.35
CNC(=O)[C@H]1CC[C@@H]2[C@@H](CCN2CCOCc2ccccc2)O1 | -12.3
O=C(NCCc1cccs1)[C@]12COC[C@H]1CN(c1ncccn1)C2 | -13.7
O=C(NC1CCC1)[C@@H]1CC[C@@H]2[C@@H](CCN2CCc2ccccc2)O1 | -13.9
Cc1nc(CO[C@H]2CN(C(=O)c3ccc[nH]3)[C@@H]3COC[C@H]23)cs1 | -13
CCN(C(=O)c1ccc2nnc(C3CCN(C)C3)n2c1)C(C)C (stereo not drawn) | -11.3
O=C(c1ccco1)N1CC[C@H]2[C@H]1CC(=O)N2c1cccnc1 | 21.7
CN(C)C(=O)CO[C@H]1CO[C@@]2(CCN(Cc3ccsc3)C2)C1 | -6.3
O=C(NCCc1cccs1)[C@]12COC[C@H]1CN(Cc1ccccn1)C2 | 39.1
CN(Cc1cccnc1)C[C@H]1OC[C@@H]2CCN(C(=O)C3CC3)C[C@@H]21 | -9.16
Cc1ccc(CN2CC[C@H]3[C@H](CO[C@H]3CN(C)C)C2)o1 | -11.7
Cn1cc(N2CC[C@@H]3CN(Cc4ccncc4)C[C@H]3C2=O)cn1 | 2.33
